Source: PMC9598367, “Discovery and Preliminary Structure-Activity Investigation of 3-Substituted-1H-imidazol-5-yl-1H-indoles with In Vitro Activity towards Methicillin-Resistant Staphylococcus aureus” (Antibiotics, 2022)
In brackets after ≈: the same amount, converted by molar mass. Read-outs that look alike come from different tables or passages of the source. Marks after values point to notes of the source that are not given here.

Legend:
[1] = HEK293 cytotoxicity assay (resazurin); type: cell-based, human; details: human; for CC50 at 20 h: concentration at 50% cytotoxicity on HEK293 cells, mean (n = 2)
Description: For the HEK293 cytotoxicity assay, cells were counted manually in a Neubauer hemocytometer and plated at a density of 5000 cells/well into each well of the 384-well plates containing the 25× (2 μL) concentrated compounds. The medium used was Dulbecco’s modified eagle medium (DMEM) supplemented with 10% fetal bovine serum (FBS). Cells were incubated together with the compounds for 20 h at 37 °C, 5% CO2. To measure cytotoxicity, 5 μL (equals 100 μM final) of resazurin was added to each well after incubation, and incubated for further 3 h at 37 °C with 5% CO2. After final incubation fluorescence intensity was measured as Fex 560/10 nm, em 590/10 nm (F560/590) using a Tecan M1000 Pro monochromator plate reader. CC50 values (concentration at 50% cytotoxicity) were calculated by normalizing the fluorescence readout, with 74 μg/mL tamoxifen as negative control (0%) and normal cell growth as positive control (100%). The concentration-dependent percentage cytotoxicity was fitted to a dose response function (using Pipeline Pilot) and CC50 values determined.

human red blood cells = experiment: Hemolytic assay; type: cell-based; details: concentration at 10% hemolytic activity on human red blood cells; mean (n = 2)
Description: Human whole blood was washed three times with 3 volumes of 0.9% NaCl and then resuspended in same to a concentration of 0.5 × 10^8 cells/mL, as determined by manual cell count in a Neubauer hemocytometer. The washed cells were then added to the 384-well compound-containing plates for a final volume of 50 μL. After a 10 min shake on a plate shaker the plates were then incubated for 1 h at 37 °C. After incubation, the plates were centrifuged at 1000 g for 10 min to pellet cells and debris, 25 μL of the supernatant was then transferred to a polystyrene 384-well assay plate. Hemolysis was determined by measuring the supernatant absorbance at […] (OD405). The absorbance was measured using a Tecan M1000 Pro monochromator plate reader. HC10 and HC50 (concentration at 10% and 50% hemolysis, respectively) were calculated by curve fitting the inhibition values vs. log(concentration) using a sigmoidal dose–response function with variable fitting values for top, bottom and slope.

[2] = system: Cryptococcus neoformans ATCC208821; experiment: Antifungal MIC, C. neoformans; type: cell-based; details: Cryptococcus neoformans ATCC208821; mean (n = 2)
Description: For the antifungal assay, fungi strains were cultured for 3 days on yeast extract-peptone dextrose (YPD) agar at 30 °C. A yeast suspension of 1 × 10^6 to 5 × 10^6 CFU/mL was prepared from five colonies. These stock suspensions were diluted with yeast nitrogen base (YNB) (Becton Dickinson, 233520) broth to a final concentration of 2.5 × 10^3 CFU/mL. The compounds were serially diluted 2-fold across the wells of 96-well plates (Corning 3641, nonbinding surface), with compound concentrations ranging from 0.015 to 64 μg/mL and final volumes of 50 μL, plated in duplicate. Then, 50 μL of the fungi suspension that was previously prepared in YNB broth to the final concentration of 2.5 × 10^3 CFU/mL was added to each well of the compound-containing plates, giving a final compound concentration range of 0.008 to 32 μg/mL. Plates were covered and incubated at 35 °C for 36 h without shaking. C. albicans MICs were determined by measuring the absorbance at OD530. For C. neoformans, resazurin was added at 0.006% final concentration to each well and incubated for a further 3 h before MICs were determined by measuring the absorbance at OD570–600.
(§1) Colistin and vancomycin were used as positive bacterial inhibitor standards for Gram-negative and Gram-positive bacteria, respectively. Fluconazole was used as a positive fungal inhibitor standard for C. albicans and C. neoformans. The antibiotics were provided in 4 concentrations, with 2 above and 2 below its MIC value, and plated into the first 8 wells of column 23 of the 384-well NBS plates. The quality control (QC) of the assays was determined by the antimicrobial controls and the Z′-factor (using positive and negative controls).

[3] = system: Staphylococcus aureus ATCC25923; experiment: MIC by broth dilution, S. aureus ATCC25923; type: cell-based; details: Staphylococcus aureus ATCC25923; mean (n = 3)
Description: The susceptibility of S. aureus (ATCC25923) to antibiotics and compounds was determined in microplates using the standard broth dilution method in accordance with the recommendations of the Comité de l’AntibioGramme de la Société Française de Microbiologie (CA-SFM) as previously described. Briefly, the minimal inhibitory concentrations (MICs) were determined with an inoculum of 10^5 CFU in 200 µL of Mueller-Hinton broth (MHB) containing two-fold serial dilutions of each drug. […] To determine all MICs, the measurements were independently repeated in triplicate.

[4] = system: Staphylococcus aureus ATCC43300 (MRSA); experiment: MIC, MRSA ATCC43300 (CO-ADD protocol); type: cell-based; details: for MIC: Staphylococcus aureus, read-out: MIC (µg/mL) MRSA
Description: Additional antimicrobial evaluation against Staphylococcus aureus MRSA (ATCC43300), Pseudomonas aeruginosa (ATCC27853), Escherichia coli (ATCC25922), Klebsiella pneumoniae (ATCC700603), Acinetobacter baumannii (ATCC19606), Candida albicans (ATCC90028), and Cryptococcus neoformans (ATCC208821) was undertaken at the Community for Open Antimicrobial Drug Discovery at The University of Queensland (Australia) according to their standard protocols. For antimicrobial assays, the tested strains were cultured in either Luria broth (LB) (In Vitro Technologies, USB75852, Noble Park North, Australia), nutrient broth (NB) (Becton Dickson, 234000, Macquarie Park, Australia), or cation-adjusted MHB at 37 °C overnight. A sample of culture was then diluted 40-fold in fresh MHB and incubated at 37 °C for 1.5−2 h. The compounds were serially diluted 2-fold across the wells of 96-well plates (Corning 3641, Tewksbury, MA, USA, nonbinding surface), with compound concentrations ranging from 0.015 to 64 μg/mL, plated in duplicate. The resultant mid log phase cultures were diluted to the final concentration of 1 × 10^6 CFU/mL; then, 50 μL was added to each well of the compound containing plates giving a final compound concentration range of 0.008 to 32 μg/mL and a cell density of 5 × 10^5 CFU/mL. All plates were then covered and incubated at 37 °C for 18 h. Resazurin was added at 0.001% final concentration to each well and incubated for 2 h before MICs were read by eye.
as §1

[5] = Staphylococcus aureus ATCC43300 (MRSA), mean (n = 2)

| MIC [2] [µg/mL] | MIC [3] [µg/mL] | MIC [4, 5] [µg/mL] | melting point [°C] | Structure (SMILES) | IC50 at 20 h ([1]; HEK293 cells, positive control) [µg/mL] | CC50 at 20 h [1] [µg/mL] | HC10 (human red blood cells) [µg/mL] | HC10 (µg/mL) (human red blood cells) | anti-MRSA activity (in words) ([4]; result in words) | MIC [4] [µg/mL] |
| --- | --- | --- | --- | --- | --- | --- | --- | --- | --- | --- |
| – | – | – | – | CC/C(=C(\c1ccccc1)c1ccc(OCCN(C)C)cc1)c1ccccc1 [Tamoxifen, reference compound] | 9 (≈ 24.2 µM) | – | – | – | – | – |
| 32 (≈ 87.4 µM) | 12.5 (≈ 34.1 µM) | 16 (≈ 43.7 µM) | – | Brc1ccc2c(-c3cncn3CCc3ccccc3)c[nH]c2c1 [Compound 22, 6-Bromo-3-(1-phenethyl-1H-imidazol-5-yl)-1H-indole] | – | 12.7 (≈ 34.7 µM) | >32 | – | – | – |
| > 32 | > 200 | 32 (≈ 105 µM) | 159 to 160 | COc1ccc(Cn2cncc2-c2c[nH]c3ccccc23)cc1 [Compound 11, 3-(1-(4-Methoxybenzyl)-1H-imidazol-5-yl)-1H-indole] | – | 25.6 (≈ 84.4 µM) | >32 | – | – | – |
| > 32 | 25 (≈ 81.9 µM) | 32 (≈ 105 µM) | – | Fc1ccc2c(-c3cncn3CCc3ccccc3)c[nH]c2c1 [Compound 18, 6-Fluoro-3-(1-phenethyl-1H-imidazol-5-yl)-1H-indole] | – | 16.3 (≈ 53.4 µM) | – | >32^c µg/mL | – | – |
| 32 (≈ 87.4 µM) | 6.25 (≈ 17.1 µM) | 16 (≈ 43.7 µM) | 110 to 111 | Brc1ccc2[nH]cc(-c3cncn3CCc3ccccc3)c2c1 [Compound 21, 5-Bromo-3-(1-phenethyl-1H-imidazol-5-yl)-1H-indole] | – | 10.6 (≈ 28.9 µM) | >32 | – | – | – |
| > 32 | 100 (≈ 298 µM) | 16 (≈ 47.7 µM) | – | COc1ccc(CCn2cncc2-c2c[nH]c3cc(F)ccc23)cc1 [Compound 25, 6-Fluoro-3-(1-(4-methoxyphenethyl)-1H-imidazol-5-yl)-1H-indole] | – | 27 (≈ 80.5 µM) | >32 | – | – | – |
| – | 12.5 (≈ 21.5 µM) | – | – | [H]/N=C(/N)N[C@H]1[C@H](O)[C@@H](O)[C@H](O[C@@H]2O[C@@H](C)[C@](O)(C=O)[C@H]2O[C@@H]2O[C@@H](CO)[C@H](O)[C@@H](O)[C@@H]2NC)[C@@H](N/C(N)=N\[H])[C@@H]1O [streptomycin, reference compound] | – | – | – | – | – | – |
| > 32 | 12.5 (≈ 31.5 µM) | 8 (≈ 20.2 µM) | 157 to 158 | COc1ccc(CCn2cncc2-c2c[nH]c3ccc(Br)cc23)cc1 [Compound 27, 5-Bromo-3-(1-(4-methoxyphenethyl)-1H-imidazol-5-yl)-1H-indole] | – | 16 (≈ 40.4 µM) | >32 | – | – | – |
| > 32 | 100 (≈ 315 µM) | 32 (≈ 101 µM) | 158 to 159 | COc1ccc(CCn2cncc2-c2c[nH]c3ccccc23)cc1 [Compound 23, 3-(1-(4-Methoxyphenethyl)-1H-imidazol-5-yl)-1H-indole] | – | 24.5 (≈ 77.2 µM) | >32 | – | – | – |
| 32 (≈ 83.7 µM) | 25 (≈ 65.4 µM) | 32 (≈ 83.7 µM) | 188 to 189 | COc1ccc(Cn2cncc2-c2c[nH]c3cc(Br)ccc23)cc1 [Compound 17, 6-Bromo-3-(1-(4-methoxybenzyl)-1H-imidazol-5-yl)-1H-indole] | – | 11.1 (≈ 29 µM) | >32 | – | – | – |
| > 32 | > 200 | 16 (≈ 55.7 µM) | 69 to 70 | c1ccc(CCn2cncc2-c2c[nH]c3ccccc23)cc1 [Compound 1, 3-(1-Phenethyl-1H-imidazol-5-yl)-1H-indole] | – | 19.3 (≈ 67.2 µM) | >32 | – | – | – |
| – | – | – | 127 to 130 | Fc1ccc2[nH]cc(-c3cncn3CCc3ccccc3)c2c1 [Compound 3, 5-Fluoro-3-(1-phenethyl-1H-imidazol-5-yl)-1H-indole] | – | – | – | – | devoid of activity | – |
| 32 (≈ 78 µM) | 12.5 (≈ 30.5 µM) | 16 (≈ 39 µM) | 194 to 195 | Brc1ccc2c(-c3cncn3CCc3ccc4c(c3)OCO4)c[nH]c2c1 [Compound 42, 3-(1-(2-(Benzo[d][1,3]dioxol-5-yl)ethyl)-1H-imidazol-5-yl)-6-bromo-1H-indole] | – | 16.1 (≈ 39.2 µM) | >32 | – | – | – |
| – | 0.5 to 1 (≈ 1.55 to 3.09 µM) | – | – | O=C(N[C@H](CO)[C@H](O)c1ccc([N+](=O)[O-])cc1)C(Cl)Cl [chloramphenicol, reference compound] | – | – | – | – | – | – |
| 32 (≈ 91 µM) | > 200 | 16 (≈ 45.5 µM) | 165 to 166 | COc1ccc(CCn2cncc2-c2c[nH]c3cc(Cl)ccc23)cc1 [Compound 2, 6-Chloro-3-(1-(4-methoxyphenethyl)-1H-imidazol-5-yl)-1H-indole] | – | 22.5 (≈ 64 µM) | >32 | – | – | – |
| > 32 | 25 (≈ 58.6 µM) | 16 (≈ 37.5 µM) | 141 to 142 | COc1ccc(OC)c(CCn2cncc2-c2c[nH]c3ccc(Br)cc23)c1 [Compound 34, 5-Bromo-3(1-(2,5-dimethoxyphenethyl)-1H-imidazol-5-yl)-1H-indole] | – | 6.2 (≈ 14.5 µM) | >32 | – | – | – |
| – | – | – | – | CN[C@H](CC(C)C)C(=O)N[C@H]1C(=O)N[C@@H](CC(N)=O)C(=O)N[C@H]2C(=O)N[C@H]3C(=O)N[C@H](C(=O)N[C@H](C(=O)O)c4cc(O)cc(O)c4-c4cc3ccc4O)[C@H](O)c3ccc(c(Cl)c3)Oc3cc2cc(c3O[C@@H]2O[C@H](CO)[C@@H](O)[C@H](O)[C@H]2O[C@H]2C[C@](C)(N)[C@H](O)[C@H](C)O2)Oc2ccc(cc2Cl)[C@H]1O [vancomycin, reference compound] | – | – | – | – | – | 1 (≈ 0.69 µM) |
| > 32 | > 200 | 32 (≈ 92.1 µM) | – | COc1ccc(OC)c(CCn2cncc2-c2c[nH]c3ccccc23)c1 [Compound 29, 3-(1-(2,5-Dimethoxyphenethyl)-1H-imidazol-5-yl)-1H-indole] | – | 11.5 (≈ 33.1 µM) | >32 | – | – | – |
